{"source": "PubChem BioAssay AID1259409", "about": "(Chemical Carcinogenesis Research Information System (CCRIS), 2018)", "origin": "cited, not measured here", "tested_on": "rodent chemically induced tumor inhibition, incidence and multiplicity", "experiment": "CCRIS tumor inhibitor studies", "data": [{"compound": "C=CC(C)(O)CC/C=C(\\C)CCC=C(C)C", "note": "(centres undefined)", "values": [{"measurement": "tumour outcome (control, treated, inhibition, significance)", "setting": "Carcinogen: AZOXYMETHANE, 25843-45-2, Dose [Inhibitor]: 0, 5 MG/G IN DIET FOR 22 WK BEGINNING 3 D POST LAST CARCINOGEN DOSE (STUDY DURATION: 25 WK), Route [Inhibitor]: ORAL, Species: RAT, Strain/Sex: F344/MALE, Target Tissue: Type of Lesion: DUODENUM: ADENOCARCINOMA, Dose [Carcinogen]: 15 MG/KG BW 2/WK FOR 3 WK, Promoter: NONE USED", "result": "50%, 26%, 48%, not significant"}]}, {"compound": "Brc1c(Br)c(Br)c2c(c1Br)Oc1c(Br)c(Br)c(Br)c(Br)c1O2", "values": [{"measurement": "tumour outcome (control, treated, inhibition, significance)", "setting": "Carcinogen: 7,12-DIMETHYLBENZ[A]ANTHRACENE, 57-97-6, Dose [Inhibitor]: 0, 17 NMOL 2/WK APPLIED 1 HR PRIOR TO EACH PROMOTER DOSE FOR 20 WK (STUDY DURATION: 21 WK), Route [Inhibitor]: DERMAL, Species: MOUSE, Target Tissue: Type of Lesion: SKIN: TUMOR, Dose [Carcinogen]: 390 NMOL ONCE, Promoter: 12-O-TETRADECANOYLPHORBOL-13-ACETATE, 16561-29-8", "result": "100%, 93%, 7%, not calculated"}]}, {"compound": "CSCC[C@H](N)C(=O)O", "values": [{"measurement": "tumour outcome (control, treated, inhibition, significance)", "setting": "Carcinogen: 7,12-DIMETHYLBENZ[A]ANTHRACENE, 57-97-6, Dose [Inhibitor]: 0.06 MMOL/G DIET DAILY FOR 17 WK STARTING 1 WK PRIOR TO CARCINOGEN TREATMENT AND CONTINUING THROUGH THE END OF THE STUDY, Route [Inhibitor]: ORAL, Species: RAT, Strain/Sex: SPRAGUE-DAWLEY/FEMALE, Target Tissue: Type of Lesion: MAMMARY GLAND: TUMOR, Dose [Carcinogen]: 12 MG IN 1 ML OLIVE OIL ONCE, Promoter: NONE USED", "result": "59%, 72%, -22%, not calculated"}, {"measurement": "tumour outcome (control, treated, inhibition, significance)", "setting": "Carcinogen: N-METHYL-N'-NITRO-N-NITROSOGUANADINE, 70-25-7, Dose [Inhibitor]: 0, 150 MG/KG BW 1/2 D FOR 26 WK BEGINNING POST CARCINOGEN TREATMENT (STUDY DURATION: 52 WK), Route [Inhibitor]: SUBCUTANEOUS, Species: RAT, Strain/Sex: WISTAR/MALE, Target Tissue: Type of Lesion: STOMACH: ADENOCARCINOMA, Dose [Carcinogen]: 25 UG/ML IN DRINKING WATER FOR 25 WK, Promoter: AMMONIUM ACETATE, 631-61-8, SODIUM HYPOCHLORITE, 7681-52-9, Promoter: AMMONIUM ACETATE, 631-61-8, SODIUM HYPOCHLORITE, 7681-52-9", "result": "19/19 (100%), 9/18 (50%), 50%, p<0.01"}, {"measurement": "tumour outcome (control, treated, inhibition, significance)", "setting": "Carcinogen: N-NITROSOBIS(2-OXOPROPYL)AMINE [60559-38-4], Dose [Inhibitor]: 2% IN DIET FOR 27 WK BEGINNING IMMEDIATELY POST LAST CARCINOGEN DOSE (STUDY DURATION: 32 WK), Route [Inhibitor]: ORAL, Species: HAMSTER, Strain/Sex: SYRIAN/FEMALE, Target Tissue: Type of Lesion: PANCREAS: ADENOCARCINOMA, Dose [Carcinogen]: 10 MG/KG BW 1X/WK FOR 5 WK (STUDY DURATION: 32 WK), Promoter: NONE", "result": "20/28 (71.4%), 7/19 (36.8%), 48%, p<0.05"}]}, {"compound": "C=C(C)[C@H]1Cc2c(ccc3c2O[C@@H]2COc4cc(OC)c(OC)cc4[C@@H]2C3=O)O1", "values": [{"measurement": "tumour outcome (control, treated, inhibition, significance)", "setting": "Carcinogen: AZOXYMETHANE (25843-45-2), Dose [Inhibitor]: 0, 500 PPM IN DIET FOR 4 WK, BEGINNING 1 WK BEFORE THE FIRST CARCINOGEN DOSE (STUDY DURATION: 38 WK), Route [Inhibitor]: ORAL, Species: RAT, Strain/Sex: F344/MALE, Target Tissue: Type of Lesion: LARGE INTESTINE: ADENOCARCINOMA, Dose [Carcinogen]: 15 MG/KG BW 1 INJECTION/WK FOR 3 WK, Promoter: NONE USED", "result": "9/15 (60%), 6/19 (32%), 47%, not significant"}, {"measurement": "tumour outcome (control, treated, inhibition, significance)", "setting": "Carcinogen: AZOXYMETHANE (25843-45-2), Dose [Inhibitor]: 0, 500 PPM IN DIET FOR 4 WK, BEGINNING 1 WK BEFORE THE FIRST CARCINOGEN DOSE (STUDY DURATION: 38 WK), Route [Inhibitor]: ORAL, Species: RAT, Strain/Sex: F344/MALE, Target Tissue: Type of Lesion: LARGE INTESTINE: ADENOMA, Dose [Carcinogen]: 15 MG/KG BW 1 INJECTION/WK FOR 3 WK, Promoter: NONE USED", "result": "4/15 (27%), 2/19 (11%), 59%, not significant"}, {"measurement": "tumour outcome (control, treated, inhibition, significance)", "setting": "Carcinogen: AZOXYMETHANE (25843-45-2), Dose [Inhibitor]: 0, 500 PPM IN DIET FOR 4 WK, BEGINNING 1 WK BEFORE THE FIRST CARCINOGEN DOSE (STUDY DURATION: 38 WK), Route [Inhibitor]: ORAL, Species: RAT, Strain/Sex: F344/MALE, Target Tissue: Type of Lesion: SMALL INTESTINE: ADENOCARCINOMA, Dose [Carcinogen]: 15 MG/KG BW 1 INJECTION/WK FOR 3 WK, Promoter: NONE USED", "result": "4/15 (27%), 1/19 (5%), 81%, not significant"}, {"measurement": "tumour outcome (control, treated, inhibition, significance)", "setting": "Carcinogen: AZOXYMETHANE (25843-45-2), Dose [Inhibitor]: 0, 500 PPM IN DIET FOR 4 WK, BEGINNING 1 WK BEFORE THE FIRST CARCINOGEN DOSE (STUDY DURATION: 38 WK), Route [Inhibitor]: ORAL, Species: RAT, Strain/Sex: F344/MALE, Target Tissue: Type of Lesion: SMALL INTESTINE: ADENOMA, Dose [Carcinogen]: 15 MG/KG BW 1 INJECTION/WK FOR 3 WK, Promoter: NONE USED", "result": "1/15 (7%), 0/19 (0%), 100%, not significant"}, {"measurement": "tumour outcome (control, treated, inhibition, significance)", "setting": "Carcinogen: AZOXYMETHANE (25843-45-2), Dose [Inhibitor]: 0, 500 PPM IN DIET FOR 34 WK, BEGINNING 1 WK AFTER THE LAST CARCINOGEN DOSE (STUDY DURATION: 38 WK), Route [Inhibitor]: ORAL, Species: RAT, Strain/Sex: F344/MALE, Target Tissue: Type of Lesion: LARGE INTESTINE: ADENOCARCINOMA, Dose [Carcinogen]: 15 MG/KG BW 1 INJECTION/WK FOR 3 WK, Promoter: NONE USED", "result": "9/15 (60%), 3/16 (19%), 68%, p= 0.0226"}, {"measurement": "tumour outcome (control, treated, inhibition, significance)", "setting": "Carcinogen: AZOXYMETHANE (25843-45-2), Dose [Inhibitor]: 0, 500 PPM IN DIET FOR 34 WK, BEGINNING 1 WK AFTER THE LAST CARCINOGEN DOSE (STUDY DURATION: 38 WK), Route [Inhibitor]: ORAL, Species: RAT, Strain/Sex: F344/MALE, Target Tissue: Type of Lesion: LARGE INTESTINE: ADENOMA, Dose [Carcinogen]: 15 MG/KG BW 1 INJECTION/WK FOR 3 WK, Promoter: NONE USED", "result": "4/15 (27%), 1/16 (6%), 78%, not significant"}, {"measurement": "tumour outcome (control, treated, inhibition, significance)", "setting": "Carcinogen: AZOXYMETHANE (25843-45-2), Dose [Inhibitor]: 0, 500 PPM IN DIET FOR 34 WK, BEGINNING 1 WK AFTER THE LAST CARCINOGEN DOSE (STUDY DURATION: 38 WK), Route [Inhibitor]: ORAL, Species: RAT, Strain/Sex: F344/MALE, Target Tissue: Type of Lesion: SMALL INTESTINE: ADENOCARCINOMA, Dose [Carcinogen]: 15 MG/KG BW 1 INJECTION/WK FOR 3 WK, Promoter: NONE USED", "result": "4/15 (27%), 1/16 (6%), 78%, not significant"}, {"measurement": "tumour outcome (control, treated, inhibition, significance)", "setting": "Carcinogen: AZOXYMETHANE (25843-45-2), Dose [Inhibitor]: 0, 500 PPM IN DIET FOR 34 WK, BEGINNING 1 WK AFTER THE LAST CARCINOGEN DOSE (STUDY DURATION: 38 WK), Route [Inhibitor]: ORAL, Species: RAT, Strain/Sex: F344/MALE, Target Tissue: Type of Lesion: SMALL INTESTINE: ADENOMA, Dose [Carcinogen]: 15 MG/KG BW 1 INJECTION/WK FOR 3 WK, Promoter: NONE USED", "result": "1/15 (7%), 0/16 (0%), 100%, not significant"}, {"measurement": "outcome", "setting": "Carcinogen: DIETHYLNITROSAMINE, Dose [Inhibitor]: 0, 0.005, 0.5, 500 PPM FOR 11 OR 43 WK BEGINNING 1 WK AFTER CARCINOGEN (STUDY DURATION: 45 WK), Dose [Inhibitor]: 0, 0.005, 0.5, 500 PPM FOR 11 OR 43 WK BEGINNING 1 WK AFTER CARCINOGEN (STUDY DURATION: 45 WK), Route [Inhibitor]: DIET, Species: RAT, Strain/Sex: F344/MALE, Target Tissue: Type of Lesion: LIVER: HEPATOCELLULAR CARCINOMA, HEPATOCELLULAR ADENOMA, Dose [Carcinogen]: 100 MG/KG BW TWICE AT 1 WK INTERVALS (STUDY DURATION: 45 WK)", "result": "60; 35; 65; 100: 55; 65; 50; 100"}]}]}
